# Target: rat SAPK (isoform β) (Rattus norvegicus, UniProt P49187)
# Assay: SAPK FlashPlate Assay (inhibition of cJun phosphorylation)
# Assay type: biochemical
# Settings: GST-cJun substrate, 30 minutes at 37 °C
# Experimental: "IC50" refers to the concentration of a particular 4- or 5-alkynyloxindole or 4-or 5-alkenyloxindole required to inhibit 50% of cJun phosphorylation, which is a measure of inhibition of SAPK activity. IC50 can be measured, inter alia, using the assay described herein in Example 102.
# Human JNK is highly homologous to rat SAPK. To measure the inhibitory activity of test compounds, the compounds were tested in the rat SAPK assay.
# For the SAPK assay, purified GST-cJun (a chimeric protein containing cJun, a natural substrate of JNK) was coated on 96 well FlashPlates (New England Nuclear, Boston, MA). Purified rat SAPK (isoform β, Kyriakis et al. supra) was preincubated with preparations containing MEKK-1 and MKK4 for 30 minutes at 37 °C in assay buffer containing 25 mM HEPES, pH 7.5, 150 mM NaCl, 20 mM MgCl2, 2 mM DTT, 0.001% Tween 20, 1 µM ATP freshly added. In the preincubation step, MEKK-1 phosphorylates and activates MKK-4, which in tum phosphorylates and activates SAPK. The activated SAPK was then added to the cJun coated FlashPlates along with ^33P-ATP (0.32 µCi per reaction) and test compounds. The plates were incubated for 30 minutes at 37 °C, then washed with PBS, 0.01% Tween 20, and counted in the Topcount scintillation counter (Packard Instrument Co., Downers Grove, IL). Dilutions of compounds were tested in duplicate in each assay. The percent inhibition of cJun phosphorylation (a measure of inhibition of SAPK activity) was determined by the following formula: [formula] where "test compound" refers to the average counts per minute of the test duplicates, "nonspecific" refers to the average counts per minute when no SAPK was added, and "total" refers to the average counts per minute when no compound was added.
# Sequence of rat SAPK (isoform β) (P49187 whole entry, canonical isoform): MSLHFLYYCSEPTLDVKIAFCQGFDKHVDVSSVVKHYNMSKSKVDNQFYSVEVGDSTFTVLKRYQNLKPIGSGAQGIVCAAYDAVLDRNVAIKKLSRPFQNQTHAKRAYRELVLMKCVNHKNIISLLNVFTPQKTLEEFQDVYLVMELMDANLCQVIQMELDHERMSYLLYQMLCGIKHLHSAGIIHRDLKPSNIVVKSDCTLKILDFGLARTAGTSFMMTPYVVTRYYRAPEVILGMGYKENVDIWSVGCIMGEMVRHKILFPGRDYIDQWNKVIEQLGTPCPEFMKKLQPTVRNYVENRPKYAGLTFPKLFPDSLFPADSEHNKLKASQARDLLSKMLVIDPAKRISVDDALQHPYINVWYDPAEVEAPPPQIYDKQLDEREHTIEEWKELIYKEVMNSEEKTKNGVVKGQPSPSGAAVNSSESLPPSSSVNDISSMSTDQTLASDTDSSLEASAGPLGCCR
row,SMILES,IC50 [µM]
1,"COc1cc(C(O)C#Cc2cccc3c2/C(=C/c2[nH]ccc2OC)C(=O)N3)ccc1OCC(=O)O (racemic) [RR, rac-(Z)-[4-[3-[2,3-Dihydro-3-[(3-methoxy-1H-pyrrol-2-yl)methylene]-2-oxo-1H-indol-4-yl]-1-hydroxy-2-propynyl]-2-methoxyphenoxy]acetic acid]",< 1
2,"COc1cc[nH]c1/C=C1\C(=O)Nc2cccc(C#CC(O)c3cc(OC)c4c(c3)OCO4)c21 (racemic) [SS, rac-(Z)-4-[3-hydroxy-3-(4-methoxy-1,3-benzodioxol-6-yl)-1-propynyl]-1,3-dihydro-3-[(3-methoxy-1H-pyrrol-2-yl)methylene]-2H-indol-2-one]",< 1
3,"COc1cc[nH]c1/C=C1\C(=O)Nc2cccc(C#Cc3ccncc3)c21 [EEE, (Z)-1,3-Dihydro-3-[(3-methoxy-1 H-pyrrol-2-yl)methylene]-4-[(4-pyridinyl)ethynyl]-2H-indol-2-one]",< 1
4,"COc1cc[nH]c1/C=C1\C(=O)Nc2ccc([N+](=O)[O-])c(C#Cc3cccnc3)c21 [GGG, (Z)-1,3-Dihydro-3-[(3-methoxy-1H-pyrrol-2-yl)methylene]-5-nitro-4-[(3-pyridinyl)ethynyl]-2H-indol-2-one]",< 1
5,"COc1cc[nH]c1/C=C1\C(=O)Nc2cccc(C#Cc3ccccn3)c21 [DDD, (Z)-1,3-Dihydro-3-[(3-methoxy-1H-pyrrol-2-yl)methylene]-4-[(2-pyridinyl)ethynyl]-2H-indol-2-one]",< 1
6,"COc1cc[nH]c1/C=C1\C(=O)Nc2cccc(C#CC(O)c3ccc(OCCCN(C)C)cc3)c21 (racemic) [V, rac-(Z)-1,3-Dihydro-4-[3-[4-(3-dimethylaminopropoxy)-phenyl]-3-hydroxy-1-propynyl]-3-[(3-methoxy-1H-pyrrol-2-yl)methylene]-2H-indol-2-one]",0.034
7,"COc1cc(C(O)C#Cc2cccc3c2/C(=C/c2[nH]ccc2OC)C(=O)N3)ccc1OCCN1CCOCC1 (racemic) [Compound MM, rac-(Z)-1,3-Dihydro-4-[3-hydroxy-3-[3-methoxy-4-[2-(4-morpholinyl)-ethoxy]-phenyl]-1-propynyl]-3-[(3-methoxy-1H-pyrrol-2-yl)methylene]-2H-indol-2-one]",< 1
8,"COc1cc[nH]c1/C=C1\C(=O)Nc2cccc(C#CC(O)c3ccc(OCC(=O)O)cc3)c21 (racemic) [YY, rac-(Z)-[4-[3-[2,3-dihydro-3-[(3-methoxy-1H-pyrrol-2-yl)methylene]-2-oxo-1H-indol-4-yl]-1-hydroxy-2-propynyl]phenoxy]acetic acid]",< 1
9,"COc1cc[nH]c1/C=C1\C(=O)Nc2cccc(C#CC(O)c3sccc3OC)c21 (racemic) [OO, rac-(Z)-1,3-Dihydro-4-[3-hydroxy-3-(3-methoxy-2-thiophenyl)-1-propynyl]-3-[(3-methoxy-1H-pyrrol-2-yl)methylene]-2H-indol-2-one]",< 1
10,"COc1cc[nH]c1/C=C1\C(=O)Nc2cccc(C#CC(O)c3ccc(Cl)cc3OCSC)c21 (racemic) [UU, rac-(Z)-4-[3-(4-Chloro-2-methylsulfanylmethoxyphenyl)-3-hydroxy-1-propynyl]-1,3-dihydro-3-[(3-methoxy-1H-pyrrol-2-yl)methylene]-2H-indol-2-one]",< 1
11,"COc1cc[nH]c1/C=C1\C(=O)Nc2ccc(N)c(C#Cc3cccnc3)c21 [HHH, (Z)-5-Amino-1,3-dihydro-3-[(3-methoxy-1H-pyrrol-2-yl)methylene]-4-[(3-pyridinyl)ethynyl]-2H-indol-2-one]",< 1
12,"COc1ccccc1C(O)C#Cc1cccc2c1/C(=C/c1[nH]ccc1OC)C(=O)N2 (racemic) [Compound M, rac-(Z)-1,3-Dihydro-4-[3-hydroxy-3-(2-methoxyphenyl)-1-propynyl]-3-[(3-methoxy-1H-pyrrol-2-yl)methylene]-2H-indol-2-one]",< 1
13,"COc1cc[nH]c1/C=C1\C(=O)Nc2cccc(C#CC(C)(O)c3ccccc3)c21 (racemic) [Compound T, rac-(Z)-1,3-Dihydro-4-[3-hydroxy-3-phenyl-1-butynyl]-3-[(3-methoxy-1H-pyrrol-2-yl)methylene]-2H-indol-2-one]",0.253

# Other lines, results leading:
row,IC50 [µM],SMILES
1,< 1,"COc1cc[nH]c1/C=C1\C(=O)Nc2cccc(C#CC(O)c3ccc(O)cc3)c21 (racemic) [Q, rac-(Z)-1,3-Dihydro-4-[3-hydroxy-3-(4-hydroxyphenyl)-1-propynyl]-3-[(3-methoxy-1H-pyrrol-2-yl)methylene]-2H-indol-2-one]"
2,< 1,"COc1cc[nH]c1/C=C1\C(=O)Nc2cccc(C#CC(O)c3ccc[nH]3)c21 (racemic) [DD, rac-(Z)-1,3-Dihydro-4-[3-hydroxy-3-(1H-pyrrol-2-yl)-1-propynyl]-3-[(3-methoxy-1H-pyrrol-2-yl)methylene]-2H-indol-2-one]"
3,< 1,"COc1ccc(C(O)C#Cc2cccc3c2/C(=C/c2[nH]ccc2OC)C(=O)N3)cc1O (racemic) [HH, rac-(Z)-1,3-Dihydro-4-[3-hydroxy-3-(3-hydroxy-4-methoxyphenyl)-1-propynyl]-3-[(3-methoxy-1H-pyrrol-2-yl)methylene]-2H-indol-2-one]"
4,< 1,"COc1cc[nH]c1/C=C1\C(=O)Nc2cccc(C#CC(O)c3ccc(NC(C)=O)cc3)c21 (racemic) [BBB, rac-(Z)-4-[3-(4-Acetamidophenyl)-3-hydroxy-1-propynyl]-1,3-dihydro-3-[(3-methoxy-1H-pyrrol-2-yl)methylene]-2H-indol-2-one]"
5,< 1,"COc1ccc(C(O)C#Cc2cccc3c2/C(=C/c2[nH]ccc2OC)C(=O)N3)cc1OC (racemic) [FF, rac-(Z)-1,3-Dihydro-4-[3-(3,4-dimethoxyphenyl)-3-hydroxy-1-propynyl]-3-[(3-methoxy-1H-pyrrol-2-yl)methylene]-2H-indol-2-one]"
6,< 1,"COc1cc[nH]c1/C=C1\C(=O)Nc2cccc(C#CC(O)c3ccco3)c21 (racemic) [VV, rac-(Z)-1,3-Dihydro-4-[3-(2-furanyl)-3-hydroxy-1-propynyl]-3-[(3-methoxy-1H-pyrrol-2-yl)methylene]-2H-indol-2-one]"
7,< 1,"COc1cc[nH]c1/C=C1\C(=O)Nc2cccc(C#CC(O)c3ccc(OCC(=O)OC(C)(C)C)cc3)c21 (racemic) [XX, rac-(Z)-[4-[3-[2,3-dihydro-3-[(3-methoxy-1H-pyrrol-2-yl)methylene]-2-oxo-1H-indol-4-yl]-1-hydroxy-2-propynyl]phenoxy]acetic acid 1,1-dimethylethyl ester]"
8,< 1,"COc1cc[nH]c1/C=C1\C(=O)Nc2cccc(C#CC(O)c3ccc(OCCN4CCOCC4)cc3)c21 (racemic) [Compound TT, rac-(Z)-1,3-Dihydro-4-[3-hydroxy-3-[4-[2-(4-morpholinyl)-ethoxy]-phenyl]-1-propynyl]-3-[(3-methoxy-1H-pyrrol-2-yl)methylene]-2H-indol-2-one]"
9,< 1,"COc1cc(OC)c(C(O)C#Cc2cccc3c2/C(=C/c2[nH]ccc2OC)C(=O)N3)cc1OC (racemic) [PP, rac-(Z)-1,3-Dihydro-4-[3-hydroxy-3-(2,4,5-trimethoxyphenyl)-1-propynyl]-3-[(3-methoxy-1H-pyrrol-2-yl)methylene]-2H-indol-2-one]"

# System: MMP-3
# Assay: MG-63 Cell-Based Assay, MMP-3 release after IL-1β stimulation (ELISA)
# Settings: Homo sapiens, MG63 cells, IL-1β stimulated, 24 hours with compound, read-out: IC50 (µM) in MG63 Cells MMP3
# Source text: (§1) The MG63 cell line, a human osteosarcoma cell line, was purchased from American Type Culture Collection (ATCC; Rockville, MD) and grown in the medium recommended by ATCC. When stimulated with human IL-1β , MG63 cells release matrix metalloproteinase 3 (MMP-3), an AP-1 dependent inflammatory mediator and IL-6, a NF-κB-dependent mediator. In this assay the ability of a test compound to block MMP-3 expression and not block IL-6 expression is an indication that the compound is a selective inhibitor of the AP-1 transcription pathway.
# (§2) On day 1 the cells were plated at 2.5X10^4 cells/well in 96 well plates. After 24 hours, dexamethasone (the assay control) (Sigma, St. Louis, MO) and the test compounds were diluted to appropriate concentrations and added to the MG63 cells. The cells were incubated with the compounds for 24 hours after which the supernatants were removed and analyzed by ELISA.
# (§3) In the ELISA, 96 well plates were coated with antibody to MMP-3 or IL-6. Supernatants were added to the coated plates and any antigen (MMP-3 or IL-6) in the supernatant bound to the antibody coated on the plates. The plates were then washed with PBS containing 0.05% Tween 20 (Sigma, St. Louis, MO) and the biotinylated secondary antibody was added. This secondary antibody binds to the already bound antigen creating a "sandwich effect". Plates were washed as described above and horseradish peroxidase (HRP)-streptavidin conjugate (Sigma, St. Louis, MO) was added to the plates. HRP-streptavidin bound to the biotin-antibody conjugate. The plates were washed and TMB substrate (Kirkegaard and Perry Labs, Gaithersburg, MD) was added to the wells. This substrate changes color in the presence of HRP-streptavidin. The intensity of the color (measured at 450 nm) is proportional to the amount of MMP-3 or IL-6 produced by the MG63 cells upon exposure to IL-1β and the test compounds. Optical density values were converted to concentration (pg/ml or Units/ml) based on a standard curve included in the assay. IC50 values for each test compound were determined from the linear regression of a plot of the logarithm of the concentration of compound versus amount of MMP-3 or IL-6 secreted. (The MMP-3 antibodies were prepared in-house using standard hybridoma technology and the IL-6 antibodies were obtained from either Genzyme, Cambridge, MA or Pharmingen, San Diego, CA.).
row,IC50 [µM],SMILES
1,< 12.5,"C#CC(O)c1cccn1C (stereo not drawn) [Z, 3-Hydroxy-3-(1-methyl-pyrrol-2-yl)-1-propyne]"

# System: IL-6
# Assay: MG-63 Cell-Based Assay, IL-6 release after IL-1β stimulation (ELISA)
# Settings: Homo sapiens, MG63 cells, IL-1β stimulated, 24 hours with compound, read-out: IC50 (µM) in MG63 Cells IL6
# Source text: as §1, §2, §3
row,IC50 [µM],SMILES
1,< 20,"C#CC(O)c1cccn1C (stereo not drawn) [Z, 3-Hydroxy-3-(1-methyl-pyrrol-2-yl)-1-propyne]"
